Measurements taken from patent US6872745B2, “Antipicornaviral compounds and compositions, their pharmaceutical uses, and materials for their synthesis” (Agouron Pharmaceuticals, Inc., priority 2000, dated 2005).

How the values were obtained:
[1] = biological target: T1, rhinovirus 3C protease, serotype 14 (Human rhinovirus 14, UniProt P03303); assay: Inhibition of rhinovirus 3C protease (FRET assay, enzyme start); type: biochemical; conditions: HRV-14 3C protease, progress curves, read-out: Kobs/I
T1 construct: Recombinant rhinovirus 3C proteases; made in house
Procedure: Stock solutions (50 mM, in DMSO) of various compounds were prepared; dilutions were in the same solvent. Recombinant rhinovirus 3C proteases (see Birch et al., “Purification of recombinant human rhinovirus 14 3C protease expressed in Escherichia coli,” Protein Expr. Pur. (1995), vol. 6(5), 609-618) from serotypes 14, 16, and 2 were prepared by the following standard chromatographic procedures: (1) ion exchange using Q Sepharose Fast Flow from Pharmacia; (2) affinity chromatography using Affi-Gel Blue from Biorad; and (3) sizing using Sephadex G-100 from Pharmacia. Each assay sample contained 2% DMSO, 50 mM tris pH 7.6, 1 mM EDTA, a test compound at the indicated concentration, approximately 1 μM substrate, and 50-100 nM protease. The kobs/I values were obtained from reactions initiated by addition of enzyme rather than substrate. RVP activity was measured in the fluorescence resonance energy transfer assay. The substrate was (N-terminal) DABCYL-(Gly-Arg-Ala-Val-Phe-Gln-Gly-Pro-Val-Gly)-EDANS. In the uncleaved peptide, the EDANS fluorescence was quenched by the proximal DABCYL moiety. When the peptide was cleaved, the quenching was relieved, and activity was measured as an increase in fluorescence signal. The tabulated data in the column designated kobs/[I] were measured from progress curves in enzyme start experiments.

HRV-14 = assay: Antirhinoviral H1-HeLa cell culture assay (XTT cell protection); type: cell-based, human rhinovirus; conditions: Rhinovirus B, HRV14, H1-HeLa, HRV-14, H1-HeLa cells
Procedure: (§1) In this cell protection assay, the ability of compounds to protect cells against HRV infection was measured by the XTT dye reduction method, which is described in Weislow et al., J. Natl. Cancer Inst. (1989), vol. 81, 577-586. H1-HeLa cells were infected with HRV-14 at a multiplicity of infection (m.o.i.) of 0.13 (virus particles/cell) or mock-infected with medium only. Infected or mock-infected cells were resuspended at 8×10^5 cells per ml, and incubated with appropriate concentrations of the compounds to be tested. Two days later, XTT/PMS was added to test plates and the amount of formazan produced was quantified spectrophotometrically at 450/650 nm. The EC50 value was calculated as the concentration of compound that increased the percentage of formazan production in compound-treated, virus-infected cells to 50% of that produced by compound-free, mock-infected cells. The 50% cytotoxic dose (CC50) was calculated as the concentration of compound that decreased the percentage of formazan produced in compound-treated, mock-infected cells to 50% of that produced by compound-free, mock-infected cells. The therapeutic index (TI) was calculated by dividing the CC50 value by the EC50 value.
(§2) All strains of human rhinovirus (HRV) for use in this assay were purchased from American Type Culture Collection (ATCC), except for HRV serotype-14 (produced from the infectious cDNA clone constructed by Dr. Robert Rueckert, Institute for Molecular Virology, University of Wisconsin, Madison, Wis.). HRV stocks were propagated and viral assays were performed in H1-HeLa cells (ATCC). Cells were grown in minimal essential medium with 10% fetal bovine serum, available from Life Technologies (Gaithersburg, Md.).

[2] = Cytotoxicity in mock-infected cells of the antirhinoviral assay (XTT); type: cell-based; conditions: human, H1-HeLa cells, table line HRV-14
Procedure: as §1, §2

HRV-1A = assay: Antirhinoviral H1-HeLa cell culture assay (XTT cell protection); type: cell-based, human rhinovirus; conditions: Rhinovirus A, HRV1A, H1-HeLa cells
Procedure: as §1, §2

HRV-10 = assay: as above; type: cell-based; conditions: Human rhinovirus sp., HRV10; HRV-10, H1-HeLa cells
Procedure: as §1, §2

H1-HeLa cells = assay: Cytotoxicity in mock-infected cells of the antirhinoviral assay (XTT); type: cell-based
Procedure: as §1, §2

T1 sequence (P03303 1538-1719): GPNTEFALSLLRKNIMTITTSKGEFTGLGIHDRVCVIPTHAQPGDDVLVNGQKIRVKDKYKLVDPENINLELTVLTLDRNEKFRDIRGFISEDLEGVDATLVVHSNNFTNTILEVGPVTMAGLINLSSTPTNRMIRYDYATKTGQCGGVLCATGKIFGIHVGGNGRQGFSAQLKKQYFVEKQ

Compound | kinact/KI [1] [M⁻¹ s⁻¹] | EC50 (HRV-14) [nM] | EC50 (HRV-1A) [nM] | EC50 (HRV-10) [nM] | CC50 at 2 days [2] [µM] | CC50 (H1-HeLa cells; table line HRV-1A) [nM] | CC50 (H1-HeLa cells; table line HRV-10) [nM]
CCOC(=O)/C=C/[C@H](CCC(N)=O)NC(=O)[C@H](Cc1ccccc1)NC(=O)c1ccc(-c2ccncc2)[nH]1 [Compound 15, 6-Carbamoyl-4S-{3-phenyl-2S-[(5-pyridin-4-yl-1H-pyrrole-2-carbonyl)-amino]-propionylamino}-hex-2(trans)-enoic acid ethyl ester] | 980 | 27000 | – | – | > 100 | – | –
C#CC[C@H](NC(=O)c1ccc(-c2ccccc2C(F)(F)F)[nH]1)C(=O)N[C@H](/C=C/C(=O)OCC)CCC(N)=O [Compound 16, 6-Carbamoyl-4S-(2S-{[5-(2-trifluoromethyl-phenyl)-1H-pyrrole-2-carbonyl]-amino}-pent-4-ynoylamino)-hex-2(trans)-enoic acid ethyl ester] | 7100 | 1320 | – | – | > 10 | – | –
CCOC(=O)/C=C/[C@H](CCC(N)=O)NC(=O)CNC(=O)c1ccc(-c2ccccc2C(F)(F)F)[nH]1 [Compound 20, 6-Carbamoyl-4S-(2S-{[5-(2-trifluoromethyl-phenyl)-1H-pyrrole-2-carbonyl]-amino}-acetylamino)-hex-2(trans)-enoic acid ethyl ester] | 330 | 16400 | – | – | > 100 | – | –
CCOC(=O)/C=C/[C@H](CCC(N)=O)NC(=O)[C@H](Cc1ccccc1)NC(=O)c1ccc(CCC(F)(F)F)[nH]1 [Compound 22, 6-Carbamoyl-4S-(3-phenyl-2S-{[5-(3,3,3-trifluoro-propyl)-1H-pyrrole-2-carbonyl]-amino}-propionylamino)-hex-2(trans)-enoic acid ethyl ester] | 4400 | 5720 | – | – | > 10 | – | –
CCOC(=O)/C=C/[C@H](CCC(N)=O)NC(=O)[C@H](CC)NC(=O)c1ccc(-c2ccccc2C(F)(F)F)[nH]1 [Compound 23, 6-Carbamoyl-4S-(2S-{[5-(2-trifluoromethyl-phenyl)-1H-pyrrole-2-carbonyl]-amino}-butyrlamino)-hex-2(trans)-enoic acid ethyl ester] | 3800 | 1550 | – | – | > 10 | – | –
CCOC(=O)/C=C/[C@H](C[C@@H]1CCNC1=O)NC(=O)[C@H](Cc1ccccc1)NC(=O)c1ccc[nH]1 [Compound 24, 5-(2-Oxo-pyrrolidin-3S-yl)-4S-{3-phenyl-2S-[(1H-pyrrole-2-carbonyl)-amino]-propionylamino}-pent-2(trans)-enoic acid ethyl ester] | 5460 | 3910 | – | – | > 100 | – | –
O=C1OCC/C1=C\[C@H](C[C@@H]1CCNC1=O)NC(=O)[C@H](Cc1ccc(F)cc1)NC(=O)c1ccc(-c2cccc3ccccc23)[nH]1 [Compound 26] | 188000 | 73 | – | – | > 10 | – | –
O=C1OCC/C1=C\[C@H](C[C@@H]1CCNC1=O)NC(=O)[C@H](Cc1ccc(F)cc1)NC(=O)c1ccc(-c2ccccc2)[nH]1 [Compound 27, 5-Phenyl-1H-pyrrole-2-carboxylic acid-{2S-(4-fluorophenyl)-1S-[1-(2-oxo-dihydrofuran-3-ylidinemethyl)-1-(2-oxo-pyrrolidin-3S-methyl)-ethylcarbamoyl]-2S-phenyl-ethyl}-amide] | 11700 | 1580 | – | – | > 10 | – | –
O=C1OCC/C1=C\[C@H](C[C@@H]1CCNC1=O)NC(=O)[C@@H](CC(=O)c1ccc(-c2cccc3ccccc23)[nH]1)Cc1ccc(F)cc1 [Compound 33, 2-(R,S)-(4-Fluorobenzyl)-4-(5-naphthalen-1-yl-1H-pyrrol-2-yl)-4-oxo-N-[2-(2-oxo-dihydro-furan-3-ylidine)-1S-(2-oxo-pyrrolidin-3S-ylmethyl)-ethyl]-butyramide] | 100000 | 212 | – | – | > 10 | – | –
CCOC(=O)/C=C/[C@H](C[C@@H]1CCNC1=O)NC(=O)[C@@H](CC(=O)c1ccc(-c2ccccc2C(F)(F)F)[nH]1)Cc1ccccc1 [Compound 35, 4S-{2R-Benzyl-4-oxo-4-[5-(2-trifluoromethyl-phenyl)-1H-pyrrol-2-yl]-butyrylamino}-5-(2-oxo-pyrrolidin-3S-yl)-pent-2(trans)-enoic acid ethyl ester] | 125000 | 143 | – | – | > 10 | – | –
CCOC(=O)/C=C/[C@H](C[C@@H]1CCNC1=O)NC(=O)[C@H](CC)CC(=O)c1ccc(-c2ccccc2C(F)(F)F)[nH]1 [Compound 37, 4S-{2R-Ethyl-4-oxo-4-[5-(2-trifluoromethyl-phenyl)-1H-pyrrol-2-yl]-butyrylamino}-5-(2-oxo-pyrrolidin-3S-yl)-pent-2(trans)-enoic acid ethyl ester] | 26400 | 266 | – | – | > 10 | – | –
CCOC(=O)/C=C/[C@H](CCC(N)=O)NC(=O)[C@H](Cc1ccccc1)N(C)C(=O)c1ccc(-c2ccccc2C(F)(F)F)[nH]1 [Compound 41, 6-Carbamoyl-4S-(2S {methyl-[5-(2-trifluoromethyl-phenyl)-1H-pyrrole-2-carbonyl]-amino}-3-3-phenyl-propionylamino)-hex-2(trans)-enoic acid ethyl ester] | 10700 | 500 | – | – | > 10 | – | –

More lines, in order of falling EC50 (HRV-14), values ahead:

kinact/KI [1] [M⁻¹ s⁻¹] | EC50 (HRV-14) [nM] | EC50 (HRV-1A) [nM] | EC50 (HRV-10) [nM] | Compound | CC50 at 2 days [2] [µM] | CC50 (H1-HeLa cells; table line HRV-1A) [nM] | CC50 (H1-HeLa cells; table line HRV-10) [nM]
2500 | 3340 | – | – | CCOC(=O)/C=C/[C@H](C[C@@H]1CCNC1=O)NC(=O)[C@@H](CC(=O)c1ccc[nH]1)Cc1ccccc1 [Compound 30] | > 10 | – | –
2900 | 2190 | – | – | CCOC(=O)/C=C/[C@H](CCC(N)=O)NC(=O)[C@H](CC(C)C)NC(=O)c1ccc(-c2ccccc2C(F)(F)F)[nH]1 [Compound 17, 6-Carbamoyl-4S-(4-methyl-2S-{[5-(2-trifluoromethyl-phenyl)-1H-pyrrole-2-carbonyl]-amino}-pentanoylamino)-hex-2(trans)-enoic acid ethyl ester] | > 10 | – | –
3180 | 1660 | – | – | CCOC(=O)/C=C/[C@H](CCC(N)=O)NC(=O)[C@@H](CC(=O)c1ccc(-c2ccccc2C(F)(F)F)[nH]1)Cc1ccccc1 [Compound 40, 4S-{2R-Benzyl-4-oxo-[5-(2-trifluoromethyl-phenyl)-1H-pyrrol-2-yl]-butyrylamino}-6-carbamoyl-hex-2(trans)-enoic acid ethyl ester] | > 10 | – | –
3140 | 1600 | – | – | CCC[C@H](NC(=O)c1ccc(-c2ccccc2C(F)(F)F)[nH]1)C(=O)N[C@H](/C=C/C(=O)OCC)CCC(N)=O [Compound 18, 6-Carbamoyl-4S-(2S-{[5-(2-trifluoromethyl-phenyl)-1H-pyrrole-2-carbonyl]-amino}-pentanoylamino)-hex-2(trans)-enoic acid ethyl ester] | > 10 | – | –
6650 | 1530 | – | – | CCCC[C@H](NC(=O)c1ccc(-c2ccccc2C(F)(F)F)[nH]1)C(=O)N[C@H](/C=C/C(=O)OCC)CCC(N)=O [Compound 19, 6-Carbamoyl-4S-(2S-{[5-(2-trifluoromethyl-phenyl)-1H-pyrrole-2-carbonyl]-amino}-hexanoylamino)-hex-2(trans)-enoic acid ethyl ester] | > 10 | – | –
340000 | 59 | 213 | 66 | CCOC(=O)/C=C/[C@H](C[C@@H]1CCNC1=O)NC(=O)[C@H](Cc1ccccc1)NC(=O)c1ccc(-c2ccccc2C(F)(F)F)[nH]1 [Compound 28, 5-(2-Oxo-pyrrolidin-3S-yl)-4S-(3-phenyl-2S-{[5-(2-trifluoromethyl-phenyl)-1H-pyrrole-2-carbonyl]-amino}-propionylamino)-pent-2(trans)-enoic acid ethyl ester] | > 1 | > 1000 | > 1000
